Results as given in patent US9051245B2 (UHA MIKAKUTO CO., LTD., priority 2011, dated 2015).
Read-outs that look alike come from different tables or passages of the source.

Experiments:
[1] = test system: HL-60 cells (human myeloid leukemia cells); assay: Cancer cell growth inhibitory action using HL-60 cells (Cell counting kit-8); assay type: cell-based; settings: for IC50: HL-60 cells, 24 hours, read-out: Cell growth inhibition ability (IC50); for Effect of inhibiting the growth of the HL-60 cells compared with resveratrol and E-viniferin: relative to resveratrol and ε-viniferin
Procedure: Next, in order to see the effect of each compound to cancer cells, the cancer cell growth inhibitory action using HL-60 cells (human myeloid leukemia cells) was tested.
As culturing of cells, one in which 4 mM glutamine (L-glutamine, Sigma-Aldrich, “G8540-100G”) and 10% FBS (fetal bovine serum, Biological Industries, “04-001-1A”) were added to a high nutrient medium […] (Sigma-Aldrich, “R0883”) was used as a culture solution, and then subculture was performed. For a test, a 96-well plate for cell culture (Corning, “3595”) was used. The number of cells was adjusted on the test day in such a manner that the number of the HL-60 cells was 5×10^5 cell/mL, and then seeded in the 96-well plate with 100 μL/well.
For the preparation of the samples, each compound was dissolved with DMSO (dimethylsulfoxide, Wako Pure Chemical Industries, “046-21981”), and then the final concentration in the culture solution of the HL-60 cells of the samples was adjusted to be 10 μM, 30 μM, 100 μM, and 300 μM, respectively, and then the test was started.
For the detection of the cell growth inhibitory effect, the detection was performed by a MTT method using “Cell counting kit-8” (Dojin Chemical Laboratory, “347-07621”). More specifically, 24 hours after starting the test, 10 μL of the detection liquid of the cell counting kit-8 was added to each well, and then sufficiently stirred. Thereafter, a shading reaction was performed, the absorbance at 450 nm was measured using a plate reader (Biorad Laboratories, “BIO-RAD Model 680”), and then the obtained data were treated. The cell viability is a value obtained by calculation under the conditions where the number of survival cells of the cells treated with the culture solution to which DMSO was added was 100% and the number of survival cells of the cells under the concentration of each compound was defined as a relative value. From the relationship between each sample concentration and the cell viability, the concentration IC50 (50% inhibitory concentration) which inhibits the cell growth by 50% was calculated.

[2] = DPPH radical elimination method (antioxidation); settings: for IC50: DPPH radical, 20 minutes, absorbance 520 nm, read-out: Radical capturing ability (IC50); for Antioxidation activity compared with resveratrol: DPPH, relative to resveratrol
Procedure: A test of the antioxidation effect of the UHA4002 and 4003 was performed. The test was performed by adopting a DPPH (1,1-diphenyl-2-picrylhydrazyl) radical elimination method. A technique thereof is mentioned below.
About the main experiment method of the DPPH radical elimination method, the test was advanced with reference to a technique described in “Methods for Functional Food Analysis” (Published by Korin Publishing Co., Ltd., edited by Kazuki SHINOHARA, Tateo SUZUKI, and Shuichi KAMINOGAWA, 2000). […] The DPPH reaction liquid was adjusted in such a manner as to be 400 μM DPPH (Sigma-Aldrich “D9132”), 50 mM MES (2-morpholinoethanesulphonic acid, Dojindo Laboratories, “345-01625”), and 75% ethanol. The reaction was performed in a 96-well plate (As One, “1-6776-03”), and 100 μL of the samples and 100 μL of the DPPH reaction liquid were placed, and then mixed. The mixture was allowed to stand still in a shading state for 20 minutes, and then each absorbance at 520 nm was measured with a plate reader.
The IC50 refers to a concentration of each sample which is considered to have an ability of eliminating 50% DPPH radical.

[3] = test system: Bacillus subtilis (NBRC 3134); assay: Antibacterial paper disc method; assay type: cell-based; settings: 24 hours, read-out: Diameter of inhibition zone; for zone of inhibition at 1000 µM: NBRC3134, added concentration 1 mM; for zone of inhibition at 5000 µM: NBRC3134, added concentration 5 mM; for zone of inhibition at 10000 µM: NBRC3134, added concentration 10 mM
Procedure: An assay was performed by a paper disc method for the purpose of confirming the antibacterial action of the UHA4002 and 4003. The paper disc method is a known technique capable of easily investigating the antibacterial activity of a test substance by creating each inhibition zone of the test substance. The assay was performed using, as a fungus body, Bacillus subtilis (NBRC 3134) purchased from National Institute of Technology and Evaluation Biological Resource Center NBRC. For the raise of a fungus body and a culture method thereof, No. 702 which is a culture solution specified by NBRC was adjusted and used. The culture was performed at 37° C. The experiment method of the paper disc method ((Agar) culture solution, Culture method, Test preparation, Test method) was performed in accordance with a BSAC standardization disc sensitivity test method (8th edition). […] As a positive control, chloramphenicol (Wako Pure Chemical Industries, “036-10571”) of an antibacterial component to be used as a pharmaceutical agent was dissolved in DMSO and adjusted and, as a negative control, DMSO was used. The samples thus adjusted were immersed in the paper disc, disposed on an agar medium in which bacillus subtilis was seeded, cultured, and then, after 24 hours later, the measurement of the inhibition zone was performed. The reliability of this example is confirmed from the size of the inhibition zone by chloramphenicol.

[4] = test system: SCC-4 cells (human oral cancer cells); assay: Oral cancer cell growth inhibitory action using SCC-4 cells (Cell counting kit-8); assay type: cell-based; settings: read-out: Cell growth inhibition ability (IC50)
Procedure: For culturing of the SCC-4 cells, a DMEM/F-12 (1:1) culture medium (manufactured by GIBCO) containing 400 ng/mL hydrocortisone (manufactured by Sigma-Aldrich Japan), 1% antibiotic-antimycotic (manufactured by GIBCO), and 10% FBS (Fetal Bovine Serum, manufactured by ATCC) was used. For the test, a collagen I coat 96-well plate for cell culture (manufactured by Japan BD) was used, and SCC-4 cells whose number of cells was adjusted to be 5×10^5 cells/mL were seeded with 100 μL/well. The cells were cultured under the conditions of 37° C. and 5% CO2 for 24 hours, and were used for the test in a confluent state of 80% or higher.
With respect to the sample preparation, each compound was dissolved with DMSO, and then prepared in such a manner as to be 0.63 mM, 1.25 mM, 2.5 mM, 5 mM, and 10 mM. The samples were added in such a manner that the final concentration in the SCC-4 cell culture solution was 6.3 μM, 12.5 μM, 25 μM, 50 μM, and 100 μM, and then the test was started. The sample to which an equivalent amount of only DMSO as the solvent was added was used as a negative control.
The number of viable cells was quantified by an MTT method using a “Cell counting kit-8” in the same manner as in Example 3, and the concentration IC50 at which the cell growth is inhibited by 50% was calculated.

[5] = molecular target: rat intestine derived lipase; assay: Lipase inhibitory action test (Lipase kit S); assay type: biochemical; settings: 30° C., 10 minutes reaction
Procedure: As lipase, one obtained by suspending 100 mg of rat derived intestine acetone powder (manufactured by Sigma-Aldrich Japan) in 1 mL of 100 mM citric acid buffer (pH 6.0), stirring the same at 4° C. for 1 hour, centrifuging the same (at 15000 rpm for 45 minutes at 4° C.) to obtain a supernatant, and then diluting the supernatant by 1500 times was used as a lipase solution.
With respect to the sample preparation, those obtained by dissolving each compound with DMSO, and then preparing in such a manner as to be 0.1 mM, 0.5 mM, 1 mM, 2 mM, and 4 mM were used.
For measuring the activity, a “Lipase kit S” (Trade name, manufactured by Dainippon Pharmaceutical Co., Ltd.) was used. First, in accordance with a preparation method described in the catalog of the Lipase kit S, a color developing liquid was prepared. Reaction liquids in which 70 μL, of the color developing liquid, 2 μL of an esterase inhibitor, 10 μL of the lipase solution, and 10 μL of the samples (Final concentration: 10 μM, 50 μM, 100 μM, 200 μM, 400 μM, and 1000 μM) were mixed were prepared, preincubated at 30° C. for 5 minutes, and then 8 μl of a substrate solution described in the catalog was added. Then, a reaction was started. After reacting for 10 minutes, 150 μL of a reaction stop liquid prepared in accordance with the preparation method described in the catalog of the Lipase kit S was added to stop the reaction. […]

[6] = Physicochemical properties: solubility in solvents

| IC50 ([1]; Homo sapiens) | IC50 [2] | IC50 [4] | IC50 [5] | Solubility ([6]; Chloroform) | Solubility ([6]; DMSO) | Solubility ([6]; Ethanol) | Solubility ([6]; Ethyl acetate) | Solubility ([6]; Methanol) | Solubility ([6]; Water) | IC50 [1] | SMILES | Effect of inhibiting the growth of the HL-60 cells compared with resveratrol and E-viniferin [1] | Antioxidation activity compared with resveratrol [2] | zone of inhibition at 1000 µM [3] | zone of inhibition at 5000 µM [3] | zone of inhibition at 10000 µM [3] | zone of inhibition at 50000 µM ([3]; NBRC3134, added concentration 50 mM) |
| --- | --- | --- | --- | --- | --- | --- | --- | --- | --- | --- | --- | --- | --- | --- | --- | --- | --- |
| 30 µM | 50 µM | 52.1 µM | 311 µM | Poorly soluble | Soluble | Soluble | Poorly soluble | Soluble | Poorly soluble | – | Oc1ccc(/C=C/c2cc(O)cc3c2C(c2ccc(O)cc2)Cc2cc(O)cc(O)c2-3)cc1 (single isomer, unassigned) [UHA 4002] | twice or higher | as high as twice | 8.5 mm | 11 mm | 13.3 mm | – |
| – | – | – | – | – | – | – | – | – | – | 60 µM | Oc1ccc(/C=C/c2cc(O)cc3c2[C@@H](c2cc(O)cc(O)c2)[C@H](c2ccc(O)cc2)O3)cc1 [ε-viniferin, reference compound] | – | – | – | – | – | – |
| 30 µM | 50 µM | 32.4 µM | – | Poorly soluble | Soluble | Soluble | Poorly soluble | Soluble | Poorly soluble | – | Oc1ccc(/C=C\c2cc(O)c3c(c2)-c2c(O)cc(O)cc2CC3c2ccc(O)cc2)cc1 (single isomer, unassigned) [UHA 4003] | twice or higher | as high as twice | 8.3 mm | 10.5 mm | 11.8 mm | – |
| 80 µM | – | > 100 µM | > 1000 µM | – | – | – | – | – | – | – | Oc1ccc(/C=C/c2cc(O)cc(O)c2)cc1 [Resveratrol, trans-resveratrol, reference compound] | – | – | 0 mm | 0 mm | 0 mm | 10 mm |
